Consider 1 molecule from patent publication US10675293B2, “Nucleoside agents for the reduction of the deleterious activity of extended nucleotide repeat containing genes” (The Board of Trustees of the Leland Stanford Junior …, priority 2015, dated 2020).

“Also recorded” adds a separate entry of the source.

The subject of experiment [1] is mutant Huntingtin protein. Put plainly: Western blot of mutant HTT in Huntington's disease patient iPSC ND36999. The experiment is classed as cell-based, human. The conditions noted are these: iPSC with 180 CAG repeats, 24 hr. The method, then:
Cell samples were lysed in 30 mM Tris-HCl, pH 8.0, 5 mM NaCl, 0.1% Triton X-100 for 10 min on ice. The supernatants from spinning (14 k rpm for 10 min) were collected. The protein concentrations were determined by BCA assay (Pierce, ThermoFisher). Equal amounts of protein were loaded onto 4-12% gel. After electrophoresis, the gels were transferred to nitrocellulose membranes by wet transfer at 35V for 16 hr. The protein level of mutant HTT, total HTT and tubulin were determined by immunoblotting with anti-poly Glutamine (MAB1574 from Millipore), anti-Huntingtin protein (MAB2166 from Millipore) and anti-alpha tubulin (AJ1034a from ABGENT). Blots were imaged on a Li-Cor Odyssey infrared imager. The bands intensities were determined by Li-Cor Odyssey software.
To test whether the nucleoside 6-Azauridine (HD101) and (−)-6-Azauridine 2′,3′,5′-triacetate (HD106) can affect the expression of proteins with long polyQ domains, one iPSC (induced pluripotent stem cell) line ND36999, which was derived from a Huntington's disease patient who carries one allele of mutant htt gene with 180 CAG repeats, was purchased from the Coriell Institute. The iPSCs were plated into a 24-well plate coated with Matrigel. […] Cells were lysed and the protein concentrations were determined by BCA assay. […] The image (FIG. 10) was taken and the quantification was made by Li-Cor Odyssey imaging system.
(In western blotting, separated proteins are transferred to a membrane and probed.)

Experiment [2] addresses T1, Supt4h-YC / Supt5h NGN-YN interaction (Homo sapiens, UniProt O00267+P63272).
T1 construct: NGN-YN is a genetic engineered protein in which Supt5h NGN domain is fused to YFP YN; expressed in transfected cells
As to the kind of experiment: Bimolecular fluorescence complementation (BiFC) assay in 2-PN4 stable cells. The experiment is classed as cell-based. The protocol:
Human Supt4h and Supt5hNGN were fused in-frame with the YC and YN respectively. The YN and YC represent the N- and C-terminal domain of yellow fluorescent protein Venus. To prevent a change in protein folding caused by the conjugation of two polypeptides (Kerppola, “Design and implementation of bimolecular fluorescence complementation (BiFC) assays for the visualization of protein interactions in living cells,” Nature protocols (2006) 1:1278-1286), a protein linker containing additional 10 amino acid residues was included in the fusion protein. Also, extra amino acids GSHM were incorporated into the Supt5hNGN to increase its protein stability (Wenzel et al., “Crystal structure of the human transcription elongation factor DSIF hSpt4 subunit in complex with the hSpt5 dimerization interface,” The Biochemical journal (2010) 425:373-380). Supt4h, NGN, YC, and YN were amplified by PCR to generate DNA fragments containing the nucleotide sequence of protein linker. Supt4h and NGN PCR products then were mixed with the PCR product of YN or YC for secondary overlapping PCR. Finally, the resulting Supt4h-YC and NGN-YN DNA fragment was cloned into plasmid vector pcDNA3-HA and pFLAG-CMV-2 respectively.
Tet-on HeLa cells were transfected with linearized pTRE-HA-Supt4h-VC-Flag-NGN-VN plasmid construct using LipofectAMINE 2000 (Invitrogen). After transfection, cells were cultured initially in growth medium containing puromycin (1 μg/ml) and then selected for clones that show YFP fluorescence in the presence of tetracycline (4 μg/ml). The stable line having the strongest fluorescence signal was isolated and designated as 2-PN4. Likewise, 21-VS stable line was created using pTRE-HA-Venus.
Stable lines 2-PN4 and 21-VS were pre-cultured in 6-well plates, followed by an incubation of Doxycycline (4 μg/ml) together with various concentrations of chemical compounds for 24 hr. Cells were washed with PBS (Sigma) and monitored by microscope (20× magnification). Photos were taken using Nikon D500 camera with a setting of ISO 1600, shutter 1/200 for the light images, and shutter ½ for the fluorescence images. For quantification of fluorescence intensity, 5 photos with similar cell number were taken and the fluorescence signal was measured by Metamorph software individually. The average of overall fluorescence signal was determined and compared to the one observed in DMSO-treated control sample.
For the purpose of high-throughput drug screening, based on the BiFC method as mentioned above, we have created a stable cell line that co-expresses NGN-YN and Supt4h-YC under the control of a tet-on inducible promoter. […] If the complementation that is driven by NGN and Supt4h interaction is inhibited by a given test compound, the de novo YFP fluorescence signal is affected. […]

`O=c1cnn([C@@H]2O[C@H](CO)[C@@H](O)[C@H]2O)c(=O)[nH]1` [HD101, 6-Azauridine]: in experiment [1], the “mutant Huntingtin protein level” value is “preferentially decrease mutant Huntingtin protein in a dose dependent manner; also recorded: reduced mutant huntingtin expression in a dose dependent manner”. For the same molecule, the “reduction of BiFC signal compared to mock controls” value in experiment [2] (0.02 μM, 24 hr) is given as “approximately 70%”. Besides, the “BiFC fluorescence signal of 2-PN4 cells” value in experiment [2] (various concentrations, 24 hr with Doxycycline 4 μg/ml) is listed as “inhibits the fluorescence signal of BiFC”.
